Experimental data from BindingDB's records for doi:10.1016/s0960-894x(01)00591-1 (University of Maryland, 2001).

Molecular target: Guanine deaminase (Oryctolagus cuniculus)
Test: Binding affinity against Guanine deaminase (guanase) from rabbit liver was determined

- Ki: 29.7 µM
Structure (SMILES): N=c1nc(N)nc(N)c2c1N(COCCO)CN2
